Usually IC50 stands for the midpoint of a concentration-inhibition curve.

Each structure is given as a SMILES string. Where a name gives a salt, the structure may show the parent alone.

9 molecules from patent US12391697B2, “Condensed bi-heterocycles as inhibiting agents for Bruton's tyrosine kinase” (BIOGEN MA INC., priority 2019, dated 2025) can be followed below.

Experiment [1] has as its system CD69 expression on CD19+ B cells in whole blood. Put plainly: In Vitro Whole Blood CD69 Assay. Format: cell-based, Human. To be noted: Homo sapiens, B-cell, human heparinized whole blood, anti-human IgD stimulation, percentage of CD19+ B cells expressing CD69; read-out: IC50. As for the experimental part:
In Vitro Whole Blood CD69 Assay
Human heparinized venous blood from health donors was aliquoted into 96-well plate and “spiked” with serial dilutions of formula I compounds in DMSO or with DMSO without drug. The final concentration of DMSO in all wells was 0.1%. The plate was incubated at 37° C. for 30 min. Drug-containing samples were stimulated with 0.1 μg/mL mouse anti-human IgD-dextran (1A62) or 20 μg/mL polyclonal rabbit F(ab′)2 anti-human IgD. Phosphate-buffered saline (PBS) was added to the negative control unstimulated sample and the plates were incubated overnight (18 to 22 hours) at 37° C. Cells were stained with fluorochrome-conjugated anti-CD19 and anti-CD69 antibodies. Lyse/fix solution was used to remove red blood cells by hypotonic lysis and to fix the remaining cells, which were then analyzed by flow cytometry. CD19+ B cells were gated and analyzed for CD69 expression. The percentage of B cells expressing CD69 was plotted versus the log 10 of the concentration of the drug and the best-fit curves (variable Hill slope) were generated to obtain the IC50 value.

Another experiment addresses BTK (Homo sapiens (Human), UniProt Q06187). Nature of the experiment: In Vitro BTK Kinase Assay: Btk-PolyGAT-LS Assay. Format: biochemical. To be noted: active BTK enzyme 0.25 nM, ATP 10 μM, polyGAT 100 nM, 30 minutes. In a few lines: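 Recombinant BTK (0.25 nM) phosphorylating 100 nM polyGAT at 10 μM ATP in Tris-HCl pH 7.5 buffer with MgCl2, DTT, Triton X-100 and casein, 30 min, then EDTA stop.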

BTK, sequence (Q06187 whole entry): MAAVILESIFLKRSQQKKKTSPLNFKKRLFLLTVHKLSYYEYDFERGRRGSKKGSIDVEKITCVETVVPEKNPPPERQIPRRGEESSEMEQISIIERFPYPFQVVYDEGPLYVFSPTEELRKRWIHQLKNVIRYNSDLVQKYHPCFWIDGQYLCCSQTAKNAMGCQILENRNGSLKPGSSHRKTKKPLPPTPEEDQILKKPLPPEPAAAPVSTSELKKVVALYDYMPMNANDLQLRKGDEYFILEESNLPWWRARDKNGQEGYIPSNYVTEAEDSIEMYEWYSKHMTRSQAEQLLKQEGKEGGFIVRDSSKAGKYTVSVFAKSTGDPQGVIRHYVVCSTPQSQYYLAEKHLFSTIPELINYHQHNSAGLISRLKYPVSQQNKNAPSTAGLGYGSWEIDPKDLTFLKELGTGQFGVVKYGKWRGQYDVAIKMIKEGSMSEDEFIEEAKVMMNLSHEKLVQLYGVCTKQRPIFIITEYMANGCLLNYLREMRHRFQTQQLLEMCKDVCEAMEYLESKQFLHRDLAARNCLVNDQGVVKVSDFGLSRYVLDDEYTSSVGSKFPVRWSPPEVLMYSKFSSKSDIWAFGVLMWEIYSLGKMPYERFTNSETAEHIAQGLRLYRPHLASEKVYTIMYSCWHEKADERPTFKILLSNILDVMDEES

On to `Cn1cc(-c2cc3c(-c4ccc(CNC(=O)c5noc(C(C)(C)C)n5)c(C(F)F)c4F)ncnn3c2)cn1` [Example 36, 5-(tert-butyl)-N-(2-(difluoromethyl)-3-fluoro-4-(6-(1-methyl-1H-pyrazol-4-yl)pyrrolo[2,1-f][1,2,4]triazin-4-yl)benzyl)-1,2,4-oxadiazole-3-carboxamide hydrochloride], for which the results for the IC50 (in experiment [1]; against BTK) were 100 to 1000 nM and not above 1 nM, respectively.
Taken in the same sequence, the figures for `CC(C)(C)c1nc(C(=O)NCc2ccc(-c3ncnn4cc(N5CCOCC5)cc34)cc2C2CC2)no1` [Example 37, 5-(tert-butyl)-N-(2-cyclopropyl-4-(6-morpholinopyrrolo[2,1-f][1,2,4]triazin-4-yl)benzyl)-1,2,4-oxadiazole-3-carboxamide] were more than 1000 nM and not above 1 nM.
Taken in the same sequence, the figures for `Cc1cc(-c2ncnn3cc(-c4ccncc4)cc23)ccc1CNC(=O)c1noc(C(C)(C)C)n1` [Example 38, 5-(tert-butyl)-N-(2-methyl-4-(6-(pyridin-4-yl)pyrrolo[2,1-f][1,2,4]triazin-4-yl)benzyl)-1,2,4-oxadiazole-3-carboxamide] were 100 to 1000 nM and not above 1 nM.
Taken in the same sequence, the figures for `Cc1cc(-c2ncnn3cc(N4C[C@@H](C)O[C@@H](C)C4)cc23)ccc1CNC(=O)c1noc(C(C)(C)C)n1` [Example 39, 5-(tert-butyl)-N-(4-(6-((2,6-syn)-2,6-dimethylmorpholino)pyrrolo[2,1-f][1,2,4]triazin-4-yl)-2-methylbenzyl)-1,2,4-oxadiazole-3-carboxamide] were 100 to 1000 nM and not above 1 nM.
Regarding `Cc1cc(-c2ncnn3cc(-c4cnn(C)c4)cc23)ccc1CNC(=O)c1noc(C2(C)CC2)n1` [Example 40, N-(2-methyl-4-(6-(1-methyl-1H-pyrazol-4-yl)pyrrolo[2,1-f][1,2,4]triazin-4-yl)benzyl)-5-(1-methylcyclopropyl)-1,2,4-oxadiazole-3-carboxamide], the IC50 in experiment [1] is 100 to 1000 nM; against BTK, not above 1 nM.
Regarding `COc1c(CNC(=O)c2nc(C(C)(C)C)no2)ccc(-c2ncnn3cc(-c4cnn(C)c4)cc23)c1F` [Example 45, 3-(tert-butyl)-N-(3-fluoro-2-methoxy-4-(6-(1-methyl-1H-pyrazol-4-yl)pyrrolo[2,1-f][1,2,4]triazin-4-yl)benzyl)-1,2,4-oxadiazole-5-carboxamide], the IC50 in experiment [1] is 100 to 1000 nM; on BTK, not above 1 nM.
The matching figures for `CC(C)(C)c1nc(C(=O)N[C@@H]2CCCCc3c2ccc(-c2ncnn4cccc24)c3F)no1` [Example 56, (R)-5-(tert-butyl)-N-(1-fluoro-2-(pyrrolo[2,1-f][1,2,4]triazin-4-yl)-6,7,8,9-tetrahydro-5H-benzo[7]annulen-5-yl)-1,2,4-oxadiazole-3-carboxamide hydrochloride]: 100 to 1000 nM and not above 1 nM.
`Cc1cc(-c2ncnn3cc(-c4cnn(C)c4)cc23)ccc1[C@@H](C)NC(=O)c1nc(C(C)(C)C)no1` [Example 57, (R)-3-(tert-butyl)-N-(1-(2-methyl-4-(6-(1-methyl-1H-pyrazol-4-yl)pyrrolo[2,1-f][1,2,4]triazin-4-yl)phenyl)ethyl)-1,2,4-oxadiazole-5-carboxamide]: the IC50 in experiment [1] was 100 to 1000 nM; against BTK it was not above 1 nM.
The matching figures for `COCCOc1cc2c(-c3ccc(CNC(=O)c4noc(C(C)(C)C)n4)c(C)c3)ncnn2c1` [Example 58, 5-(tert-butyl)-N-(4-(6-(2-methoxyethoxy)pyrrolo[2,1-f][1,2,4]triazin-4-yl)-2-methylbenzyl)-1,2,4-oxadiazole-3-carboxamide]: less than 100 nM and not above 1 nM.
